Blank lines part the entries; values can stand above or below the compound they belong to. Active and inactive are the calls of the source. No cut-off for these calls is given here.
Legend:
PANC-1 = test: Antiproliferative activity against human PANC1 cells harboring KRAS G12D mutant after 72 hrs by CellTiter-Glo assay; type: functional, cell-based; details: PANC-1, 72 h
[1] = target: Inhibitor of nuclear factor kappa-B kinase subunit alpha (Homo sapiens) (UniProt O15111); test: Inhibition of IKKa in human SKCO1 cells at 1 uM after 4 hrs using biotin labeled DLKPENIVLQDVGGK probe by mass-spectrometric analysis relative to control; type: cell-based
Chain of Inhibitor of nuclear factor kappa-B kinase subunit alpha (Homo sapiens) (O15111 whole entry): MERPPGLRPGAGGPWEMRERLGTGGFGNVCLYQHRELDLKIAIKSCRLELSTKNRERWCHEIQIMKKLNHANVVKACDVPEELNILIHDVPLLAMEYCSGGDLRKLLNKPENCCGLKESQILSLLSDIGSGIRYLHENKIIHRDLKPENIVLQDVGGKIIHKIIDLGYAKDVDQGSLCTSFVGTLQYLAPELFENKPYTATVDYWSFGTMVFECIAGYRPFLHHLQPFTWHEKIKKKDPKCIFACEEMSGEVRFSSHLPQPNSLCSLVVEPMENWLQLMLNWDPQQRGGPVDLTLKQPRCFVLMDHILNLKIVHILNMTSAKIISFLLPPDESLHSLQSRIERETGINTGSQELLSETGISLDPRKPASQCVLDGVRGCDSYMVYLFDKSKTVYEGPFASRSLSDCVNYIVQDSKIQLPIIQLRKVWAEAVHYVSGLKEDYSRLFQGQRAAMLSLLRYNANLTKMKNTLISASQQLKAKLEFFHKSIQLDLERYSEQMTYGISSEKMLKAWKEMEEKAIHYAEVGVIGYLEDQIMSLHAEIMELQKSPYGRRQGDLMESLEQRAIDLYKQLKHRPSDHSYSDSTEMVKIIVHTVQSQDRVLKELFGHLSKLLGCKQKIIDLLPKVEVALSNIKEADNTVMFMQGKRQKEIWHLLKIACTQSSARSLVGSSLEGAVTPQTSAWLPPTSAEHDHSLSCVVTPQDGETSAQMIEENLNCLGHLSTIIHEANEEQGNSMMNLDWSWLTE

[2] = target: Tyrosine-protein kinase Fyn (Homo sapiens) (UniProt P06241); test: Inhibition of FYN in human SKCO1 cells at 1 uM after 4 hrs using biotin labeled QGAKFPIKWTAPEAALYGR probe by mass-spectrometric analysis relative to control; type: cell-based
Chain of Tyrosine-protein kinase Fyn (Homo sapiens) (P06241 2-537 limits assumed): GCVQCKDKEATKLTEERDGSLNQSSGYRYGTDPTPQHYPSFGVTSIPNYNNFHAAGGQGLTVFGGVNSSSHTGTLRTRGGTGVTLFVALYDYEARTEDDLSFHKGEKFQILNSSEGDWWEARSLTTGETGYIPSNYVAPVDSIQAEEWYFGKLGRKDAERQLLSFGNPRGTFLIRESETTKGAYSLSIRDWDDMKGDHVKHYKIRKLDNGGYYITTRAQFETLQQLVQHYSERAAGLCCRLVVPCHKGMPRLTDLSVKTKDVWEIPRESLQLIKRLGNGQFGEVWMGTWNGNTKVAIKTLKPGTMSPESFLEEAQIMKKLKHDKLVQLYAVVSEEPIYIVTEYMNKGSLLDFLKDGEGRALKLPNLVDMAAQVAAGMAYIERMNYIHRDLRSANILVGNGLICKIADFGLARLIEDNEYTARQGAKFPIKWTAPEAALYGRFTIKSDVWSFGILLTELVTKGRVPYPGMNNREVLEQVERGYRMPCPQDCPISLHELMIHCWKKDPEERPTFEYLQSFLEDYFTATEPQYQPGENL

[3] = target: Tyrosine-protein kinase JAK1 (Homo sapiens) (UniProt P23458); test: Inhibition of JAK1 domain1 in human SKCO1 cells at 1 uM after 4 hrs using biotin labeled QLASALSYLEDKDLVHGNVCTKNLLLAR probe by mass-spectrometric analysis relative to control; type: cell-based
Chain of Tyrosine-protein kinase JAK1 (Homo sapiens) (P23458 whole entry, the tested form may be a part): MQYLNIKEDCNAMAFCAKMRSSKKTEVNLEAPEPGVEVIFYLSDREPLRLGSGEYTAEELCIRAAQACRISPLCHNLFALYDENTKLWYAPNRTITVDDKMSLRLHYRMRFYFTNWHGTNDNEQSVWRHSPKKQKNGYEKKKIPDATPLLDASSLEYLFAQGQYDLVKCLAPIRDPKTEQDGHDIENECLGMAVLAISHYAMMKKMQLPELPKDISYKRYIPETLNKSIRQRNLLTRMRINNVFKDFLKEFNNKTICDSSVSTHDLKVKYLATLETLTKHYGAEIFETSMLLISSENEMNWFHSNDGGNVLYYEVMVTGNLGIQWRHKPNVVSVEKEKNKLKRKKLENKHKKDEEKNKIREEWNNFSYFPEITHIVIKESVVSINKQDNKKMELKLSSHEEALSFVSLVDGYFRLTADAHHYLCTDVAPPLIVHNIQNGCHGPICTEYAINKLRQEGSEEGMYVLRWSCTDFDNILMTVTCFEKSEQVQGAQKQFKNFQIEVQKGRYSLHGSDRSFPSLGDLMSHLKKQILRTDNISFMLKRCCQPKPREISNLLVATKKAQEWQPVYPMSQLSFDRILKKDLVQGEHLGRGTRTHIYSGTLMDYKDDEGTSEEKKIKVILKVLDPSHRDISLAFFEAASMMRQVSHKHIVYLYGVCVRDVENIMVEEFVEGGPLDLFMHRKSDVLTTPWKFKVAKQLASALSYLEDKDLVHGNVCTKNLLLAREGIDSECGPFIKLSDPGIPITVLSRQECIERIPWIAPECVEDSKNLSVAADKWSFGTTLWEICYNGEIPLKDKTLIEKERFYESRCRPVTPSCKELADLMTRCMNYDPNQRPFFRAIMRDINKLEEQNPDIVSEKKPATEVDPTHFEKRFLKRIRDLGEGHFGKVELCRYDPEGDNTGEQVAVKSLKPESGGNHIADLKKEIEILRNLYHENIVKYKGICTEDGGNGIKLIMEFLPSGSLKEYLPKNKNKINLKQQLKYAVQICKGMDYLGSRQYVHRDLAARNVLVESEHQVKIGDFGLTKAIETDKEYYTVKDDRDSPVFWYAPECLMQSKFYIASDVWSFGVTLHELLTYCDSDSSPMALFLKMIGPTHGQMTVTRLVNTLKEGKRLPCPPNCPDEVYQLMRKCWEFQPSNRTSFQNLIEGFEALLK

[4] = target: T1, Dual specificity mitogen-activated protein kinase kinase 6 (Homo sapiens) (UniProt P52564); test: Inhibition of MAP2K6 in human SKCO1 cells at 1 uM after 4 hrs using biotin labeled DVKPSNVLINALGQVK probe by mass-spectrometric analysis relative to control; type: cell-based
T1 sequence (whole entry): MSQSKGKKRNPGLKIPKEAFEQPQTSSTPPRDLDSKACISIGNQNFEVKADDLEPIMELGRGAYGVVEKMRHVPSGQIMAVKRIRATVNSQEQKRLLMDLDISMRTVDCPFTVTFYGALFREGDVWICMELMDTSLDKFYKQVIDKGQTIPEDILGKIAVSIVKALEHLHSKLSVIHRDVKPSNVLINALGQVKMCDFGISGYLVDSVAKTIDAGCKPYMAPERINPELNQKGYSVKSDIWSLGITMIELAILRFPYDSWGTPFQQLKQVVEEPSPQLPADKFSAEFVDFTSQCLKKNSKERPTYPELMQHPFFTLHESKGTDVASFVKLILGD

[5] = target: YTH domain-containing family protein 2 (Homo sapiens) (UniProt Q9Y5A9); test: Binding affinity to YTHDF2 in human NCI-H358 cells at 1 uM by mass spectrometry based pull down assay; type: cell-based
Chain of YTH domain-containing family protein 2 (Homo sapiens) (Q9Y5A9 whole entry, the tested form may be a part): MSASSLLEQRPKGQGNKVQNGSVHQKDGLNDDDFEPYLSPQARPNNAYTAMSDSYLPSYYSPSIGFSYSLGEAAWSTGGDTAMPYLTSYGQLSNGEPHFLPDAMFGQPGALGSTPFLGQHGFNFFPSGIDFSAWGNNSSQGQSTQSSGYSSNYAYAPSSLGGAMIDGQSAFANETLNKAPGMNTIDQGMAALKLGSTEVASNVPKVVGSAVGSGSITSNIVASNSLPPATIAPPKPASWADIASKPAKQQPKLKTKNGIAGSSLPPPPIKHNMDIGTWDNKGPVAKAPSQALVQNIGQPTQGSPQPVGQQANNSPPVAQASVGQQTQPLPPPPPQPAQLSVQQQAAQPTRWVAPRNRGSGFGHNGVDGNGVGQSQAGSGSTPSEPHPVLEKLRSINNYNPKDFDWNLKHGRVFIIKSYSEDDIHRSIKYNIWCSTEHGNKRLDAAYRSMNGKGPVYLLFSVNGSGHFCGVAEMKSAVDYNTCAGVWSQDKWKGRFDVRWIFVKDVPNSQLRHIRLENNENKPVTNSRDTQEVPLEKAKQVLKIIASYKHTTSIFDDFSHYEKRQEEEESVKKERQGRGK

[6] = target: Prostaglandin reductase 1 (Homo sapiens) (UniProt Q14914); test: Binding affinity to PTGR1 in human NCI-H23 cells at 1 uM by mass spectrometry based pull down assay; type: cell-based
Chain of Prostaglandin reductase 1 (Homo sapiens) (Q14914 whole entry): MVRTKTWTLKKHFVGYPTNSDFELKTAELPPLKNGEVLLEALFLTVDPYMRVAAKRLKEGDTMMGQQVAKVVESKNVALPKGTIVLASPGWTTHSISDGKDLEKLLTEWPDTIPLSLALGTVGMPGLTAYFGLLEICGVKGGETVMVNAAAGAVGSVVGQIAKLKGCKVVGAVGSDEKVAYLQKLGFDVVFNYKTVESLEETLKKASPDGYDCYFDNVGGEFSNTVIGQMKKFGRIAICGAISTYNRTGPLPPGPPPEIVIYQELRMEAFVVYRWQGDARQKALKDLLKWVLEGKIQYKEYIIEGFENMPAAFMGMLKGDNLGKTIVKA

[7] = target: Clustered mitochondria protein homolog (Homo sapiens) (UniProt O75153); test: Binding affinity to CLUH in human NCI-H23 cells at 1 uM by mass spectrometry based pull down assay; type: cell-based
[8] = target: Protein transport protein Sec16A (Homo sapiens) (UniProt O15027); test: Binding affinity to SEC16A in human NCI-H23 cells at 1 uM by mass spectrometry based pull down assay; type: cell-based
[9] = target: Arginine--tRNA ligase, cytoplasmic (Homo sapiens) (UniProt P54136); test: Binding affinity to RARS in human NCI-H23 cells at 1 uM by mass spectrometry based pull down assay; type: cell-based
[10] = target: Proteasome activator complex subunit 2 (Homo sapiens) (UniProt Q9UL46); test: Binding affinity to PSME2 in human NCI-H358 cells at 1 uM by mass spectrometry based pull down assay; type: cell-based
Chain of Proteasome activator complex subunit 2 (Homo sapiens) (Q9UL46 whole entry, one chain of several): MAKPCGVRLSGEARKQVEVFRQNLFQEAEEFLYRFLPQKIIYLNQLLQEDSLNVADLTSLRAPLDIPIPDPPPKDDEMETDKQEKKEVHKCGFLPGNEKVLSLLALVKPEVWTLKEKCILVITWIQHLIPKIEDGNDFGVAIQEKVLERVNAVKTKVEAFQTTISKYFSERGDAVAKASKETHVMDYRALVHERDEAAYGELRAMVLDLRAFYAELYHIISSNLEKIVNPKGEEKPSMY

[11] = target: Lactoylglutathione lyase (Homo sapiens) (UniProt Q04760); test: Binding affinity to GLO1 in human NCI-H23 cells at 1 uM by mass spectrometry based pull down assay; type: cell-based
Chain of Lactoylglutathione lyase (Homo sapiens) (Q04760 2-184 limits assumed): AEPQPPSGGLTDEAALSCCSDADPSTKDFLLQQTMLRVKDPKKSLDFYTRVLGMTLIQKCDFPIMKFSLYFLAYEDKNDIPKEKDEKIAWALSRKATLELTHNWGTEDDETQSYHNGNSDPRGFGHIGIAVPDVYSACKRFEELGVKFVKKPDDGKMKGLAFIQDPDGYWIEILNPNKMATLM

[12] = target: Probable ATP-dependent RNA helicase DDX6 (Homo sapiens) (UniProt P26196); test: Binding affinity to DDX6 in human NCI-H23 cells at 1 uM by mass spectrometry based pull down assay; type: cell-based
[13] = target: Citrate synthase, mitochondrial (Homo sapiens) (UniProt O75390); test: Binding affinity to CS in human NCI-H23 cells at 1 uM by mass spectrometry based pull down assay; type: cell-based
Chain of Citrate synthase, mitochondrial (Homo sapiens) (O75390 whole entry): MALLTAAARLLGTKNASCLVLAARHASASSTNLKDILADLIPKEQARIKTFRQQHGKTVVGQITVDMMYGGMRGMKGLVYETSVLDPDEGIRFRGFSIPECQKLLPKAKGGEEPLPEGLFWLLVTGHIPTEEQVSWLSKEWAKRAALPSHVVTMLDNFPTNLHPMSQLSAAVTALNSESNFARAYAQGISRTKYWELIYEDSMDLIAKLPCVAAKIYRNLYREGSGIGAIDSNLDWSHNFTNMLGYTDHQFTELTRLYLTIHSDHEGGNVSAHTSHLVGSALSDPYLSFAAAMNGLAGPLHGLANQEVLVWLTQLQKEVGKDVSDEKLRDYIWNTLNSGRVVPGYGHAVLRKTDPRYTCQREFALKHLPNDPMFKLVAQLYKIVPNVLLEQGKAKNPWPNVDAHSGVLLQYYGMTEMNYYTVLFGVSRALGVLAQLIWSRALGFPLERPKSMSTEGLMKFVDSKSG

Plectin (Homo sapiens) = Plectin (Homo sapiens) (UniProt Q15149); test: Binding affinity to PLEC in human NCI-H23 cells at 1 uM by mass spectrometry based pull down assay; type: cell-based
[14] = target: Bifunctional phosphoribosylaminoimidazole carboxylase/phosphoribosylaminoimidazole succinocarboxamide synthetase (Homo sapiens) (UniProt P22234); test: Binding affinity to PAICS in human NCI-H358 cells at 1 uM by mass spectrometry based pull down assay; type: cell-based
Chain of Bifunctional phosphoribosylaminoimidazole carboxylase/phosphoribosylaminoimidazole succinocarboxamide synthetase (Homo sapiens) (P22234 whole entry): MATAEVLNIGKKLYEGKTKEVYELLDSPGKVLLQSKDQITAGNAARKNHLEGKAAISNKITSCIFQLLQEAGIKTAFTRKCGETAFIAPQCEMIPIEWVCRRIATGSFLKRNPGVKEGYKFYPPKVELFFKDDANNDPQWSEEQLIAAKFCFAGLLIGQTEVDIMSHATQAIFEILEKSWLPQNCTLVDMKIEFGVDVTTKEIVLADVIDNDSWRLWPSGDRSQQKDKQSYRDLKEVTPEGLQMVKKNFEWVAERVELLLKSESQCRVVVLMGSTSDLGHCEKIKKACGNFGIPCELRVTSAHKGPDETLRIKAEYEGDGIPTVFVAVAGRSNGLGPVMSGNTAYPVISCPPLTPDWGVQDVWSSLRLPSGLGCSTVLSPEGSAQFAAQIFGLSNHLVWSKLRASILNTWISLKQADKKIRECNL

[15] = target: E3 ubiquitin-protein ligase UBR4 (Homo sapiens) (UniProt Q5T4S7); test: Binding affinity to UBR4 in human NCI-H23 cells at 1 uM by mass spectrometry based pull down assay; type: cell-based
[16] = target: T2, Serine/threonine-protein kinase Nek9 (Homo sapiens) (UniProt Q8TD19); test: Binding affinity to NEK9 in human NCI-H358 cells at 1 uM by mass spectrometry based pull down assay; type: cell-based
T2 sequence (whole entry): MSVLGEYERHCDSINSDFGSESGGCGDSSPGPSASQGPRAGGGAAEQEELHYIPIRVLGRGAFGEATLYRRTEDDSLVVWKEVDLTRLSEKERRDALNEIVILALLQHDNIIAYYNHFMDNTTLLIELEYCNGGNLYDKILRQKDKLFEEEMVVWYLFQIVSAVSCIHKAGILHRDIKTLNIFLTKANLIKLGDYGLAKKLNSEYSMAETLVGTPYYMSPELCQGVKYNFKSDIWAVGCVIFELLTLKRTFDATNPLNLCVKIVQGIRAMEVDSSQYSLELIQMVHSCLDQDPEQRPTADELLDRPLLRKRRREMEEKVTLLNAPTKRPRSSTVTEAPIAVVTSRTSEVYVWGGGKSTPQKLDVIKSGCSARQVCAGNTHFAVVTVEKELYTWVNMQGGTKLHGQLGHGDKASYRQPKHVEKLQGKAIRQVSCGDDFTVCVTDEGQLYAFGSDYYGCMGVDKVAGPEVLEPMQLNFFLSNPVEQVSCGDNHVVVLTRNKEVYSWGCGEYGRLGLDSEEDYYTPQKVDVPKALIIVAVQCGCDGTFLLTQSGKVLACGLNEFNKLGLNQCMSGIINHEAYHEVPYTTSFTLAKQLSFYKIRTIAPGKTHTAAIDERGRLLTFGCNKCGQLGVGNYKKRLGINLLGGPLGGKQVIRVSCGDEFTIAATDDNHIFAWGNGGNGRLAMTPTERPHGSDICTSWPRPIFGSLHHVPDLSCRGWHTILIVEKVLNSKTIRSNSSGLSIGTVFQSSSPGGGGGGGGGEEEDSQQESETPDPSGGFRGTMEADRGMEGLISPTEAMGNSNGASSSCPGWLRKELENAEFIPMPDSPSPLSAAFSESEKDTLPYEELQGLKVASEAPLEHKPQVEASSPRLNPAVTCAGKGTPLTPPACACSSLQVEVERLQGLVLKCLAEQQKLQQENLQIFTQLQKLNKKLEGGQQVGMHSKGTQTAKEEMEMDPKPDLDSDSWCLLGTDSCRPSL

SMILES: C=CC(=O)Nc1ccccc1Oc1nc(Nc2cnn(CCOC)c2)ncc1Cl
IC50 (PANC-1): 5.61 µM
inhibition [1]: 8.1%
inhibition [2]: -0.9%

SMILES: C=CC(=O)Nc1ccccc1Nc1nc(Nc2ccc(N3CCN(C)CC3)cc2)ncc1Cl
inhibition [1]: 4.9%
inhibition [3]: 64.7%

SMILES: COc1cc(O)c2c(c1)/C=C/C[C@H](O)[C@H](O)C(=O)/C=C\C[C@H](C)OC2=O
IC50 (PANC-1): 2.5 µM
inhibition [2]: 8.5%
inhibition [3]: 21.6%
inhibition [4]: 54.2%

Activity [5]: Active
Activity [6]: Active
Activity [7]: Active
Activity [8]: Active
Activity [9]: Active
Activity [10]: Active
Activity [11]: Active
Activity [12]: Active
Activity [13]: Active
Activity (Plectin (Homo sapiens)): Active
Activity [14]: Active
Activity [15]: Active
SMILES: C=CC(=O)Nc1ccccc1Nc1nc(Nc2ccc(N3CCN(CCOCCOCCOCCNC(=O)CCCC[C@@H]4SC[C@@H]5NC(=O)N[C@@H]54)CC3)cc2)ncc1Cl
Activity [16]: Active

— ChEMBL document CHEMBL4118021, “Studies of TAK1-centered polypharmacology with novel covalent TAK1 inhibitors” (Bioorg Med Chem, 2017)
